Results from the supplement of paper PMC11781733.

What was measured:
Conditions in all cases: exposure time: 15 min to 3 h acute
[1] = system: Dugesia japonica; experiment: crawl-out incidence (% planarians); higher = higher incidence or increase relative to vehicle control
[2] = system: Dugesia japonica; experiment: pharynx extrusion incidence (% planarians (vehicle-normalised)); higher = higher incidence or increase relative to vehicle control
In short: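 Fasted, intact Dugesia japonica were scored manually and blind for pharynx extrusion as a body-shape category, with the incidence normalised to in-plate vehicle controls. Testing took place 15 min to 3 h after exposure, one worm per well in 200 μL of 0.5% DMSO or water vehicle, with eight worms per concentration per plate in triplicate (n = 24). Worms that crawled out were excluded, and negative values were set to 0.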

[3] = system: Dugesia japonica; experiment: total locomotor bursts minus vehicle (bursts difference vs vehicle); higher = higher incidence or increase relative to vehicle control
In short: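 Fasted Dugesia japonica planarians, one per well of a sealed 48-well plate in 200 μL solution, were tested 15 min–3 h after exposure to half- or quarter-log concentration series. The vehicle was 0.5% DMSO or water. Total locomotor bursts, an unstimulated behaviour, came from image-based object tracking, with technical triplicates totalling n = 24. Each planarian's value had the plate vehicle-control median subtracted, without ×100 scaling. The value is the median normalised response, and crawled-out worms were excluded.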

[4] = system: Dugesia japonica; experiment: loss of phototaxis incidence (% planarians (vehicle-normalised)); higher = higher incidence or increase relative to vehicle control
In short: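 For each concentration, eight intact, fasted Dugesia japonica per plate were placed singly in wells of a 48-well plate in 200 μL and run in technical triplicate (n = 24). Testing took place 15 min to 3 h after exposure in 0.5% DMSO or water vehicle. Loss of phototaxis was recorded as present or absent by automated object tracking and expressed as an incidence rate normalised to in-plate vehicle controls. For this rate, ×100 was applied, negatives were set to 0, and worms that crawled out were excluded.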

[5] = system: Dugesia japonica; experiment: speed in dark vs vehicle (% change vs vehicle); higher = higher incidence or increase relative to vehicle control
In short: (§1)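 Crawling speed in the dark or during blue-light periods was measured by automated tracking of intact, fasted Dugesia japonica, one per well of a 48-well plate in 200 μL. Worms were tested 15 min to 3 h after exposure in 0.5% DMSO or water vehicle. Eight worms per concentration per plate were run in technical triplicate (n = 24). Each worm was normalised to the plate's vehicle median, and the value is the median percent change; worms that crawled out were excluded.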

[6] = system: Dugesia japonica; experiment: loss of heat-induced scrunching incidence (% planarians (vehicle-normalised)); higher = higher incidence or increase relative to vehicle control
In short: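 Planarians of the species D. japonica, fasted for 5–7 days, were placed singly in wells of sealed 48-well plates in 200 μL and exposed to at least 5 concentrations, 24 worms per concentration in technical triplicates. Scrunching in response to a noxious heat stimulus was tested within 15 minutes–3 hours, and any worm that crawled out was excluded. The reported figure is the incidence of non-scrunching worms, normalised to vehicle controls on the same plate. This incidence is given ×100, with negatives set to 0.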

[7] = system: Dugesia japonica; experiment: speed second 30 s blue light vs vehicle (% change vs vehicle); higher = higher incidence or increase relative to vehicle control
In short: as §1

[8] = system: Dugesia japonica; experiment: any abnormal body shape incidence (% planarians (vehicle-normalised)); higher = higher incidence or increase relative to vehicle control
In short: (§2)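 Body shape incidence, for a given shape or for any abnormal shape, is reported ×100 and normalised to vehicle controls on the same plate, with negative values set to 0. D. japonica planarians fasted for 5–7 days were placed one per well in 200 μL in sealed 48-well plates and exposed to at least 5 concentrations. Within 15 minutes–3 hours of exposure, a researcher scored contraction, C-shape, corkscrew and hyperkinesis manually and blind, excluding worms that crawled out.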

[9] = system: Dugesia japonica; experiment: corkscrew incidence (% planarians (vehicle-normalised)); higher = higher incidence or increase relative to vehicle control
In short: as §2

[10] = system: Dugesia japonica; experiment: C-shape incidence (% planarians (vehicle-normalised)); higher = higher incidence or increase relative to vehicle control
In short: as §2

[11] = system: Dugesia japonica; experiment: hyperkinesis incidence (% planarians (vehicle-normalised)); higher = higher incidence or increase relative to vehicle control
In short: as §2

[12] = system: Dugesia japonica; experiment: resting fraction in blue light vs vehicle (difference in fraction x100 vs vehicle); higher = higher incidence or increase relative to vehicle control
In short: (§3)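 In technical triplicate, eight intact, fasted Dugesia japonica per concentration per plate were tracked automatically to score the resting fraction in the dark or under blue light. Each worm had its own well of a 48-well plate containing 200 μL and was tested 15 min to 3 h after exposure in 0.5% DMSO or water vehicle. Reported values are medians of each worm's difference from the plate's vehicle median multiplied by 100, leaving out worms that crawled out.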

[13] = system: Dugesia japonica; experiment: resting fraction in dark vs vehicle (difference in fraction x100 vs vehicle); higher = higher incidence or increase relative to vehicle control
In short: as §3

[14] = system: Dugesia japonica; experiment: stickiness incidence (% planarians (vehicle-normalised)); higher = higher incidence or increase relative to vehicle control
In short: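 In the Stickiness assay, fasted Dugesia japonica planarians were each placed in one well of a sealed 48-well plate containing 200 μL of solution, with 0.5% DMSO or water as vehicle. Testing took place 15 min–3 h after exposure to half- or quarter-log concentration series. Stickiness was recorded as a binary endpoint, and its incidence was expressed relative to in-plate vehicle incidence after pooling technical triplicates and removing worms that crawled out. Negative values were set to 0 and all values were multiplied by 100.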

[15] = system: Dugesia japonica; experiment: anxiety (time in outer well region) vs vehicle (% change vs vehicle); higher = higher incidence or increase relative to vehicle control
In short: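 Dugesia japonica planarians fasted for 5–7 days were placed one per well in 200 μL in sealed 48-well plates and exposed to at least 5 concentrations, with n = 24 per concentration in technical triplicates, then screened within 15 minutes–3 hours. Object tracking in MATLAB or Python measured the time each worm spent in the outer portion of the well, and worms that crawled out were excluded. Each response was divided by, or reduced by, the plate vehicle median and multiplied by 100. The reported value is the median of these normalized responses.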

[16] = system: Dugesia japonica; experiment: contracted body shape incidence (% planarians (vehicle-normalised)); higher = higher incidence or increase relative to vehicle control
In short: as §2

[17] = system: Dugesia japonica; experiment: speed first 30 s blue light vs vehicle (% change vs vehicle); higher = higher incidence or increase relative to vehicle control
In short: as §1

[18] = system: Dugesia japonica; experiment: noxious heat displacement strength vs vehicle (% change vs vehicle); higher = higher incidence or increase relative to vehicle control
In short: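 Each intact, fasted Dugesia japonica was tested alone in a well of a 48-well plate in 200 μL, 15 min to 3 h after exposure in 0.5% DMSO or water vehicle. Eight worms per concentration per plate were used in technical triplicate (n = 24). Displacement strength under noxious heat came from the scrunching assay with automated object tracking and is given as the median percent change against the plate's vehicle median, excluding worms that crawled out.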

Structure (SMILES) | crawl-out incidence [1] | pharynx extrusion incidence [2] | total locomotor bursts minus vehicle [3] | loss of phototaxis incidence [4] | speed in dark [5] | loss of heat-induced scrunching incidence [6] | speed second 30 s blue light [7] | any abnormal body shape incidence [8] | corkscrew incidence [9] | C-shape incidence [10] | hyperkinesis incidence [11] | resting fraction in blue light [12] | resting fraction in dark [13] | stickiness incidence [14] | anxiety [15] | contracted body shape incidence [16] | speed first 30 s blue light [17] | noxious heat displacement strength [18]
O=C(O)/C=C\C(=O)O [maleic acid] (200 µM) | 0 | 0 | -2 | ≤ 0 | -20.4 | 33.3 | -23.8 | 0 | 0 | 0 | 0 | -5.42 | -12.7 | 12.5 | 23.7 | 0 | -32.5 | -39.3
Cc1ncc2n1-c1ccc(Cl)cc1C(c1ccccc1F)=NC2 [midazolam] (17.8 µM) | 0 | 0 | 1 | ≤ 0 | -14.7 | ≤ 0 | -2.19 | 33.3 | 0 | 0 | 33.3 | -0.5 | 1.03 | ≤ 0 | -7.26 | 0 | -3.83 | -19.1
Cc1ncc2n1-c1ccc(Cl)cc1C(c1ccccc1F)=NC2 [midazolam] (31.6 µM) | 0 | 0 | -0.5 | ≤ 0 | 8.87 | 8.33 | 23.1 | 20.8 | 0 | 0 | 20.8 | -0.5 | -0.404 | ≤ 0 | 3.09 | 0 | -1.82 | -27.4
Cc1ncc2n1-c1ccc(Cl)cc1C(c1ccccc1F)=NC2 [midazolam] (56.2 µM) | 0 | 0 | 2.5 | ≤ 0 | -34 | ≤ 0 | -10.2 | 33.3 | 0 | 0 | 20.8 | 2.61 | 22.7 | 4.17 | 7.1 | 12.5 | -29.6 | -25.6
Cc1ncc2n1-c1ccc(Cl)cc1C(c1ccccc1F)=NC2 [midazolam] (100 µM) | 0 | 4.17 | 28.5 | 29.2 | -70.7 | 45.8 | -87.7 | 95.8 | 0 | 20.8 | 70.8 | 68.2 | 59.7 | 20.8 | 2.35 | 45.8 | -93 | -48.3
Cc1cc2c(s1)Nc1ccccc1N=C2N1CCN(C)CC1 [olanzapine] (100 µM) | 41.7 | 0 | -2.75 | 7.14 | -67.8 | 68.2 | -91.1 | 77.3 | 18.2 | 13.6 | 45.5 | 76 | 79.9 | 27.3 | 18.3 | 27.3 | -93.9 | -50.1
Cc1cc2c(s1)Nc1ccccc1N=C2N1CCN(C)CC1 [olanzapine] (316 µM) | 37.5 | 0 | 7 | 13.3 | -71.2 | 72.7 | -89.1 | 81.8 | 13.6 | 27.3 | 45.5 | 77.4 | 73.9 | 22.7 | -6.74 | 31.8 | -94.9 | -47.4
O=C(O)C(=O)O [oxalic acid] (100 µM) | 0 | 0 | 6.5 | ≤ 0 | -6.93 | 8.33 | -8.31 | 12.5 | 0 | 0 | 12.5 | 1.86 | -1.66 | ≤ 0 | 24.9 | 0 | -25.2 | -11.5
O=C(O)C(=O)O [oxalic acid] (316 µM) | 0 | 0 | 31.5 | 8.33 | -42.2 | ≤ 0 | -69 | 62.5 | 0 | 0 | 58.3 | 22.9 | 33 | 37.5 | -24.7 | 0 | -63.2 | -67.5
